Measured values from patent US10752587B2, “Homobispiperidinyl derivatives as liver X receptor beta agonists, compositions and their use” (Merck Sharp & Dohme Corp., priority 2015, dated 2020).
Like-named read-outs stand apart in the source and are kept apart here.

Legend:
[1] = target: T1, glutathione-S-transferase (GST) tagged LXRalpha LBD (ligand binding domain) (Homo sapiens, UniProt Q13133); assay: LanthaScreen TR-FRET Liver X Receptor Coactivator Assay, co-activator recruitment to LXRalpha LBD; format: biochemical
T1 construct: purchased Invitrogen pv4655
T1 sequence (Q13133 209-447 limits assumed): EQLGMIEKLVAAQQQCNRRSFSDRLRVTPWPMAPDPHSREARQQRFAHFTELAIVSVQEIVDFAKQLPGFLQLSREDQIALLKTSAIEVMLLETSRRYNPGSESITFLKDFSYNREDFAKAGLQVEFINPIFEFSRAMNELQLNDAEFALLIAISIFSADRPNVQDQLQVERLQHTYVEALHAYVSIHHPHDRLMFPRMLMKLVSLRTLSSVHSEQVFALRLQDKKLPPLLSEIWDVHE
Method in brief: (§1)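 LXRα- or LXRβ-LBD protein was added to test compounds, then fluorescein-labelled coactivator peptide plus Tb-anti-GST antibody; after room-temperature incubation, TR-FRET was read. Inflection point (IP) and Emax were expressed relative to the dual agonist reference T0901317.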

[2] = target: T2, glutathione-S-transferase (GST) tagged LXRbeta LBD (ligand binding domain) (Homo sapiens, UniProt P55055); assay: LanthaScreen TR-FRET Liver X Receptor Coactivator Assay, co-activator recruitment to LXRbeta LBD; format: biochemical
T2 construct: purchased Invitrogen pv4658.pps
T2 sequence (P55055 222-460 limits assumed): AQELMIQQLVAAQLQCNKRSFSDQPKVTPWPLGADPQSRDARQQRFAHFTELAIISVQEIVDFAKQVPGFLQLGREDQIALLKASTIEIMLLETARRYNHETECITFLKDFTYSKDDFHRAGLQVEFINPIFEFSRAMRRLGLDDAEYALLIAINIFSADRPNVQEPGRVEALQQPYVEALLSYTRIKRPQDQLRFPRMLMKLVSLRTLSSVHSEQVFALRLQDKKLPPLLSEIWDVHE
Method in brief: as §1

[3] = efficacy at max dose, in relation to reference dual agonist T0901317, read-out: LXR alpha Activity @ max dose (%)
[4] = potency (Inflection Point, IP), co-activator recruitment to LXRalpha LBD, in relation to T0901317, read-out: LXR alpha IP
[5] = potency (Inflection Point, IP), co-activator recruitment to LXRbeta LBD, in relation to T0901317, read-out: LXR beta IP
[6] = read-out: LXR beta Activity @ max dose (%)
[7] = potency (Inflection Point, IP), co-activator recruitment to LXRalpha LBD, in relation to T0901317
[8] = efficacy at max dose, in relation to reference dual agonist T0901317, read-out: LXR beta Activity @ max dose (%)
[9] = co-activator recruitment to GST-LXRbeta LBD, TR-FRET, read-out: LXR beta IP (Inflection Point, potency)

Question: With `CN(C)C(=O)c1ccc(N2CCN(CC3CCN(C(=O)[C@](O)(c4ccccc4)C(F)(F)F)CC3)CC2)cc1Cl` [Example 6-1, 2-chloro-N,N-dimethyl-4-[4-({1-[(2R)-3,3,3-trifluoro-2-hydroxy-2-phenylpropanoyl]piperidin-4-yl}methyl)piperazin-1-yl]benzamide] as the molecule, how does the Emax [1, 3] read?
Answer: 29%

Question: And the EC50 [1, 4]?
Answer: 9030 nM

Question: And the EC50 [2, 5]?
Answer: 84 nM

Question: And the Emax [2, 6]?
Answer: 60%

Question: What does the source list for `COc1cccc([C@@](O)(C(=O)N2CCC(C(=O)N3CCN(c4ccc(C(=O)N(C)C)c(Cl)c4)CC3)CC2)C(F)(F)F)c1` [Example 5-1, (R)-2-chloro-N,N-dimethyl-4-(4-(1-(3,3,3-trifluoro-2-hydroxy-2-(3-methoxyphenyl)propanoyl)piperidine-4-carbonyl)piperazin-1-yl)benzamide]?
Answer: LXR alpha IP (nM) [1, 7]: NO IP; Emax ([1]; read-out: LXR alpha Activity @ max dose (%)): 5%; EC50 ([2]; LXR beta IP (nM), potency (Inflection Point, IP), co-activator recruitment to LXRbeta LBD, in relation to T0901317): 12400 nM; Emax [2, 6]: 31%

Question: What does the source list for `CCOc1cccc([C@@](O)(C(=O)N2CCC(C)(CC3CCN(c4ccc(C(=O)N(C)C)c(C)c4)CC3)CC2)C(F)(F)F)c1` [Example 2-79, 4-[4-({1-[(2R)-2-(3-ethoxy-phenyl)-3,3,3-trifluoro-2-hydroxy-propanoyl]-4-methylpiperidin-4-yl}methyl)piperidin-1-yl]-N,N,2-trimethyl-benzamide]?
Answer: Emax [1, 3]: 0%; LXR alpha IP (nM) [1, 7]: NO IP; Emax [2, 8]: 30%; EC50 [2, 5]: 40 nM

Question: Which results are given for `COc1cccc([C@@](O)(C(=O)N2CC(CC3CCN(c4ccc(C(=O)N(C)C)c(C)n4)CC3)C2)C(F)(F)F)c1` [Example 7-10, N,N,2-trimethyl-6-[4-({1-[(2R)-3,3,3-trifluoro-2-hydroxy-2-(3-methoxyphenyl)propanoyl]azetidin-3-yl}methyl)piperidin-1-yl]pyridine-3-carboxamide]?
Answer: Emax [1, 3]: 28%; EC50 [1, 4]: 20 nM; Emax [2, 8]: 77%; EC50 [2, 5]: 136 nM

Question: With `CN(C)C(=O)c1ccc(N2CCC(CC3CCN(C(=O)[C@](O)(c4cccc(Br)c4)C(F)(F)F)CC3)CC2)nc1Cl` [Example 7-67, 6-[4-({1-[(2R)-2-(3-bromophenyl)-3,3,3-trifluoro-2-hydroxypropanoyl]piperidin-4-yl}methyl)piperidin-1-yl]-2-chloro-N,N-dimethylpyridine-3-carboxamide] as the molecule, how does the Emax [1, 3] read?
Answer: 0%

Question: What about the EC50 [1, 4] of the same molecule?
Answer: 109 nM

Question: What about the Emax [2, 8] of the same molecule?
Answer: 73%

Question: What about the EC50 [2, 5] of the same molecule?
Answer: 4 nM

Question: How did the Emax [1, 3] turn out when `Cc1ccccc1C1(C(=O)N2CCC(CC3CCN(c4ccc(C(=O)N(C)C)c(Cl)n4)CC3)CC2)CCC1` [Example 7-56, 2-chloro-N,N-dimethyl-6-{4-[(1-{[1-(2-methylphenyl)cyclobutyl]carbonyl}piperidin-4-yl)methyl]piperidin-1-yl}pyridine-3-carboxamide] was run?
Answer: 37%

Question: What about the EC50 [1, 4] of the same molecule?
Answer: 429 nM

Question: And the Emax [2, 8]?
Answer: 114%

Question: And the EC50 [2, 5]?
Answer: 20 nM

Question: With `Cc1cccc(C(O)(C(=O)N2CCC(CC3CCN(c4ccc(C(=O)N(C)C)c(Cl)n4)CC3)CC2)C(F)(F)F)c1` (stereo not drawn) [Example 7-55, 2-chloro-N,N-dimethyl-6-[4-({1-[3,3,3-trifluoro-2-hydroxy-2-(3-methylphenyl)propanoyl]piperidin-4-yl}methyl)piperidin-1-yl] pyridine-3-carboxamide] as the molecule, how does the Emax [1, 3] read?
Answer: 9%

Question: What about the EC50 [1, 4] of the same molecule?
Answer: 141 nM

Question: And the Emax [2, 8]?
Answer: 59%

Question: What about the EC50 [2, 5] of the same molecule?
Answer: 5 nM

Question: `CN(C)C(=O)c1ccc(N2CCC(OC3CCN(C(=O)C(O)(c4ccc(Cl)cc4)C(F)(F)F)CC3)CC2)cc1Cl` (stereo not drawn) [Example 2-23, 2-chloro-4-[4-({1-[2-(4-chlorophenyl)-3,3,3-trifluoro-2-hydroxy-propanoyl]piperidin-4-yl}oxy)piperidin-1-yl]-N,N-dimethyl-benzamide] was tested. Which Emax [1, 3] did it give?
Answer: 0%

Question: What about the “LXR alpha IP (nM)” value [1, 7] of the same molecule?
Answer: NO IP

Question: And the Emax [2, 8]?
Answer: 51%

Question: And the EC50 [2, 5]?
Answer: 513 nM

Question: Which results are given for `CNC(=O)c1ccc(N2CCC(CC3CCN(C(=O)[C@](O)(c4cccc(OC(C)C)c4)C(F)(F)F)CC3)CC2)cc1Cl` [Example 7-121, 2-chloro-N-methyl-4-{4-[(1-{(2R)-3,3,3-trifluoro-2-hydroxy-2-[3-(1-methylethoxy)phenyl]propanoyl}piperidin-4-yl)methyl]piperidin-1-yl}benzamide]?
Answer: Emax [1, 3]: 11%; LXR alpha IP (nM) [1, 7]: NO IP; Emax [2, 8]: 69%; EC50 [2, 5]: 21 nM

Question: `Cc1cc(N2CCC(CC3CCN(C(=O)[C@](O)(c4cc(Cl)cc(Cl)c4)C(F)(F)F)CC3)CC2)ccc1C(=O)N(C)C` [Example 2-154, 4-[4-({1-[(2R)-2-(3,5-dichloro-phenyl)-3,3,3-trifluoro-2-hydroxy-propanoyl]piperidin-4-yl}methyl)piperidin-1-yl]-N,N,2-trimethyl-benzamide] was tested. Which Emax [1, 3] did it give?
Answer: 6%

Question: And the “LXR alpha IP (nM)” value [1, 7]?
Answer: NO IP

Question: What about the Emax [2, 8] of the same molecule?
Answer: 54%

Question: And the EC50 [2, 5]?
Answer: 23 nM

Question: Which results are given for `CN(C)C(=O)c1ccc(N2CCC(CC3CCN(C(=O)C(O)(c4cccc(C#N)c4)C(F)(F)F)CC3)CC2)nc1Cl` (stereo not drawn) [Example 7-78, 2-chloro-6-[4-({1-[2-(3-cyanophenyl)-3,3,3-trifluoro-2-hydroxypropanoyl]piperidin-4-yl}methyl)piperidin-1-yl]-N,N-dimethylpyridine-3-carboxamide]?
Answer: Emax [1, 3]: 31%; EC50 [1, 4]: 298 nM; Emax [2, 8]: 95%; EC50 [2, 5]: 6 nM

Question: `CN(C)C(=O)c1ccc(N2CCC(CC3CN(S(=O)(=O)c4ccccc4)C3)CC2)nc1Cl` [Example 14-1, 2-chloro-N,N-dimethyl-6-(4-((1-(phenylsulfonyl)azetidin-3-yl)methyl)piperidin-1-yl)nicotinamide] was tested. Which EC50 ([1]; co-activator recruitment to GST-LXRalpha LBD, TR-FRET, read-out: LXR alpha IP (Inflection Point, potency)) did it give?
Answer: 3430 nM

Question: And the Emax ([1]; read-out: LXR alpha Activity @ max dose)?
Answer: 55%

Question: And the EC50 [2, 9]?
Answer: 44 nM

Question: And the Emax ([2]; read-out: LXR beta Activity @ max dose)?
Answer: 111%

Question: With `CN(C)C(=O)c1ccc(N2CCC(CC3CCN(C(=O)[C@](O)(c4cccc(OC5CC5)c4)C(F)(F)F)CC3)CC2)cc1Cl` [Example 2-99, 2-chloro-4-{4-[(1-{(2R)-2-[3-(cyclopropyloxy)phenyl]-3,3,3-trifluoro-2-hydroxy-propanoyl}piperidin-4-yl)methyl]piperidin-1-yl}-N,N-dimethyl-benzamide] as the molecule, how does the Emax [1, 3] read?
Answer: 0%

Question: And the “LXR alpha IP (nM)” value [1, 7]?
Answer: NO IP

Question: And the Emax [2, 8]?
Answer: 37%

Question: And the EC50 [2, 5]?
Answer: 8 nM

Question: Which results are given for `CN(C)C(=O)c1ccc(N2CCC(CC3CN(C(=O)[C@](O)(c4cccc(OC(F)(F)F)c4)C(F)(F)F)C3)CC2)cc1Cl` [Example 2-63, 2-chloro-N,N-dimethyl-4-{4-[(1-{(2R)-3,3,3-trifluoro-2-hydroxy-2-[3-(trifluoro-methoxy)phenyl]propanoyl}azetidin-3-yl)methyl]piperidin-1-yl}benzamide]?
Answer: Emax [1, 3]: 22%; EC50 [1, 4]: 1510 nM; Emax [2, 8]: 79%; EC50 [2, 5]: 21 nM

Question: How did the Emax [1, 3] turn out when `COCCN(C)C(=O)c1ccc(N2CCC(CC3CCN(C(=O)[C@](O)(c4ccccc4)C(F)(F)F)CC3)CC2)cc1Cl` [Example 4-9] was run?
Answer: 31%

Question: And the EC50 [1, 4]?
Answer: 195 nM

Question: And the Emax [2, 8]?
Answer: 69%

Question: And the EC50 [2, 5]?
Answer: 17 nM

Question: For `COc1cccc(CS(=O)(=O)N2CC(CC3CCN(c4ccc(C(=O)N(C)C)c(Cl)n4)CC3)C2)c1` [Example 14-3, 2-chloro-6-[4({1-[(3-methoxybenzyl)-sulfonyl]azetidin-3-yl}methyl)piperidin-1-yl]-N,N-dimethyl-pyridine-3-carboxamide], which “LXR alpha IP (Inflection Point, potency)” value ([1]; co-activator recruitment to GST-LXRalpha LBD, TR-FRET) is on record?
Answer: NO IP

Question: And the Emax ([1]; efficacy in relation to reference dual agonist T0901317, read-out: LXR alpha Activity @ max dose)?
Answer: 5%

Question: What about the EC50 [2, 9] of the same molecule?
Answer: 1510 nM

Question: What about the Emax ([2]; efficacy in relation to reference dual agonist T0901317, read-out: LXR beta Activity @ max dose) of the same molecule?
Answer: 48%

Question: Which Emax [1, 3] does the source give for `CN(C)C(=O)c1ccc(N2CCC(CC3CCN(C(=O)[C@](O)(c4cccc(Cl)c4)C(F)(F)F)CC3)CC2)cc1` [Example 2-131, 4-[4-({1-[(2R)-2-(3-chloro-phenyl)-3,3,3-trifluoro-2-hydroxy-propanoyl]piperidin-4-yl}methyl)piperidin-1-yl]-N,N-dimethyl-benzamide] here?
Answer: 10%

Question: And the “LXR alpha IP (nM)” value [1, 7]?
Answer: NO IP

Question: What about the Emax [2, 8] of the same molecule?
Answer: 59%

Question: What about the EC50 [2, 5] of the same molecule?
Answer: 53 nM

Question: With `CN(C)C(=O)c1ccc(N2CCC(CC3CCN(C(=O)C(O)(c4cccc(C(F)(F)F)c4)C(F)(F)F)CC3)CC2)nc1Cl` (stereo not drawn) [Example 7-54, 2-chloro-N,N-dimethyl-6-{4-[(1-{3,3,3-trifluoro-2-hydroxy-2-[3-(trifluoromethyl)phenyl]propanoyl}piperidin-4-yl)methyl]piperidin-1-yl}pyridine-3-carboxamide] as the molecule, how does the Emax [1, 3] read?
Answer: 21%

Question: What about the EC50 [1, 4] of the same molecule?
Answer: 356 nM

Question: What about the Emax [2, 8] of the same molecule?
Answer: 77%

Question: And the EC50 [2, 5]?
Answer: 10 nM
